This is an account of results in publication PMC4195943, “A novel small-molecule MRCK inhibitor blocks cancer cell invasion” (Cell Communication and Signaling : CCS, 2014).

Read-outs that look alike come from different tables or passages of the source. A value given as a limit tells only on which side of the number the result lay.

One data set addresses T1, PRK2 (Homo sapiens, UniProt Q16513).
T1 construct: purchased Eurofins
Description: Kinase selectivity profiling (Eurofins), PRK2. The class given is biochemical. From the text: The results of this screening were mapped over the annotated human kinome phylogenetic tree using Kinome Render (Figure 2).
Kinases inhibited less than 25% have their names in green text. Kinases inhibited >25% and ≤50% have yellow circles, >50% and ≤75% have orange circles, and >75% have red circles. In each case, the size of the circle is proportional to the percentage inhibition. ROCK1 and MRCKα positions are indicated on the tree for orientation purposes. Illustration reproduced courtesy of Cell Signaling Technology, Inc. (www.cellsignal.com).
MRCKα, MRCKβ, ROCK1 and ROCK2 assays were performed using an IMAP fluorescence polarization assay format (Molecular Devices Inc.). 8–12 nM of each kinase (Life Technologies) was incubated for 60 min at room temperature with 100 nM FAM-S6-ribosomal protein derived peptide (synthesized by Alta Biosciences, University of Birmingham UK) in the presence of 1 μM ATP and 0.5 mM MgCl2 in 20 mM Tris buffer (pH 7.4) containing 0.01% Tween-20 and 1 mM DTT (MRCKα and β); or 1 μM ATP, 10 mM MgCl2 in 20 mM Tris buffer (pH 7.5) containing 0.25 mM EGTA 0.01% Triton X-100 and 1 mM DTT (ROCK1 and ROCK2). […] After 30 min incubation to allow binding reagent to bind phosphorylated peptide, fluorescence polarization was measured on a Tecan Saphire^2 plate reader at excitation (470 nm) and emission (530 nm) wavelengths. […]

The nature of another data set: Caco-2 permeability. The class given is in vitro ADME. Particulars: human. (Caco-2 monolayers are a common model of the intestinal barrier.)
A further data set concerns the target MRCKα (Homo sapiens, UniProt Q5VT25). Description: IMAP fluorescence polarization kinase assay, MRCKα. Type of data set: biochemical. Particulars: calculated with Cheng-Prusoff equation. The method, then: (§1) MRCKα, MRCKβ, ROCK1 and ROCK2 assays were performed using an IMAP fluorescence polarization assay format (Molecular Devices Inc.). 8–12 nM of each kinase (Life Technologies) was incubated for 60 min at room temperature with 100 nM FAM-S6-ribosomal protein derived peptide (synthesized by Alta Biosciences, University of Birmingham UK) in the presence of 1 μM ATP and 0.5 mM MgCl2 in 20 mM Tris buffer (pH 7.4) containing 0.01% Tween-20 and 1 mM DTT (MRCKα and β); or 1 μM ATP, 10 mM MgCl2 in 20 mM Tris buffer (pH 7.5) containing 0.25 mM EGTA 0.01% Triton X-100 and 1 mM DTT (ROCK1 and ROCK2). Typically, dose response analyses were performed over concentration ranges from 0.005 - 100 μM. Reactions were stopped by adding 2 assay volumes of 0.25% (v/v) IMAP binding reagent in 1× IMAP binding buffer A (Molecular Devices). After 30 min incubation to allow binding reagent to bind phosphorylated peptide, fluorescence polarization was measured on a Tecan Saphire^2 plate reader at excitation (470 nm) and emission (530 nm) wavelengths. Inhibition was calculated using no inhibitor and no enzyme controls as 0 and 100% inhibition, respectively.

A further data set in a line: logD. Type of data set: physicochemical.
The test system of data set [1] is MLC phosphorylation in MDA-MB-231 cells. The data set is described as follows: MLC phosphorylation in parental MDA-MB-231 breast cancer cells (quantitative western blot). Particulars: for EC50: parental MDA-MB-231, 30 minutes treatment, read-out: EC50, inhibition of MLC phosphorylation; for pMLC on western blots at higher concentrations: parental MDA-MB-231, higher concentrations. The class given is cell-based, human. The method, then: All results are shown as mean ± standard error of n = 3 independent replicates. […] After fixation and permeabilization, cells were stained with phalloidin to visualize filamentous actin structures and pMLC (S19) primary antibody as indicated.
Cell lysates were prepared as described previously. For pMLC western blots, cells were lysed in a 1% (w/v) SDS, 50 mM Tris pH 7.5 buffer and lysates were passed through QIAshredder columns (Qiagen, 79654). Alternatively, for pMLC western blots lysates were prepared in lysis buffer with 50 mM Tris (pH7.5), 0.5% (w/v) SDS, supplemented with Complete Protease and PhosSTOP inhibitors (Roche). Whole cell lysates were separated by SDS-PAGE, transferred to Protran nitrocellulose membranes (Whatman), probed with primary antibodies and appropriate IR dye-conjugated secondary antibodies. Blots were visualized using a Licor Odyssey according to manufacturer’s instructions. Antibodies used in this study were: MRCKα (611584) from BD Transduction Laboratories; MRCKβ (H00009578-A01) from Abnova; MRCKα/β (MANDM1 6G8) from Glenn Morris (Centre for Inherited Neuromuscular Disease, Oswestry UK); MRCL3/MRLC2/MYL9 (sc-28329) from Santa Cruz Biotechnology; pMLC2 Thr18/Ser19 (3674) from Cell Signaling Technology. ROCK1/2 (07–1458) from Millipore; TetR (Clone 9G9; 631132) from Clontech; α-Tubulin (TU-02; sc-8035) from Santa Cruz Biotechnology; ERK2 from Chris Marshall (Institute of Cancer Research, London UK). Secondary antibodies used were: goat anti-mouse IgG Dylight 800 from Thermo Scientific (35521), goat anti rabbit IgG AlexaFluor 680 from Invitrogen (A12076), goat anti-rabbit IgG IR Dye 800 CW (926–32211) and goat anti-mouse IgG IR Dye 680 (926–68020) were from LI-COR Biosciences.
For orientation: In western blotting, separated proteins are transferred to a membrane and probed.

For data set [2], the target named is T2, ROCK1 (Homo sapiens, UniProt Q13464). The data set is described as follows: MLC phosphorylation in MDA-MB-231 cells expressing doxycycline-induced ROCK1 kinase domain (quantitative western blot). Also noted: The kinase domains of MRCKβ (1–473), ROCK1 (1–535) or ROCK2 (1–532) were gene synthesized; expressed in transfected cells; host or cells: MDA-MB-231 D3H2LN-Luc Tet3G cells, pTRE3G-ROCK1 (1–535). Particulars: doxycycline-induced MDA-MB-231, 60 minutes treatment; read-out: cell based EC50, MLC phosphorylation induced by ROCK1. The method, then: (A) MDA-MB-231 breast cancer cells expressing doxycycline inducible ROCK1, ROCK2 or MRCKβ kinase domains were established as indicated. Following treatment with doxycycline for 18 hours to induce expression, cell lysates were western blotted with antibodies as indicated. […] All results are shown as mean ± standard error of n = 4 independent replicates.
MDA-MB-231 D3H2LN-Luc cells (Caliper LifeScience) were grown in MEM/EBSS (Hyclone) supplemented with 10% fetal bovine serum (FBS) (Gibco), 1 mM Sodium Pyruvate (Sigma) 2 mM L-glutamine (Gibco), 1× MEM non-essential amino acids (Gibco) plus penicillin-streptomycin (10 Units/ml and 10 μg/ml respectively) at 37°C in 5% CO2 in a humidified incubator. MDA-MB-231 D3H2LN-Luc TetOn MRCKβ, ROCK1 and ROCK2 selective cell lines were grown in the same media with 10% FBS replaced with 10% Tet System Approved FBS (Clontech).
The kinase domains of MRCKβ (1–473), ROCK1 (1–535) or ROCK2 (1–532) were gene synthesized (Genscript) and subcloned into pTRE3G (Clontech). MDA-MB-231 D3H2LN-Luc Tet3G cells were co-transfected with pTRE3G-MRCKβ (1–473), pTRE3G-ROCK1 (1–535) or pTRE3G-ROCK2 (1–532), together with a linear Pur^r-selection marker using Xfect transfection reagent according to manufacturer’s instructions. […] Each clone was treated with or without doxycycline (1 μg/ml) for 24 hours and kinase domain expression and activity determined by western blotting. […]
Target sequence in this assay (Q13464 1-535): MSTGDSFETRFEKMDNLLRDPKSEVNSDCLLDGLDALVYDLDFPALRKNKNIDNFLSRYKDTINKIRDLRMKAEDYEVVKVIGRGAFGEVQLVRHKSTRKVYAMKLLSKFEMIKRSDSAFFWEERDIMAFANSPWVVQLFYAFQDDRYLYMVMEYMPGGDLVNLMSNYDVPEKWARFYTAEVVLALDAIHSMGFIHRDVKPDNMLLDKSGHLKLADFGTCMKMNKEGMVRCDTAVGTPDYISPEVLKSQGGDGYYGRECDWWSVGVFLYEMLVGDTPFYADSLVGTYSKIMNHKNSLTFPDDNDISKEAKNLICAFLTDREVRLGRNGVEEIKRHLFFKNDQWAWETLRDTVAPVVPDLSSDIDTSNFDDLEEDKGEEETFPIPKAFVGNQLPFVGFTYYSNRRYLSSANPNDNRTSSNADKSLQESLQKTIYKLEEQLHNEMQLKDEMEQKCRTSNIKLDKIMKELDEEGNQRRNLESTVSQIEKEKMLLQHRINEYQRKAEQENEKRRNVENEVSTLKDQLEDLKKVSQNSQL

Data set [3] concerns the target T2, ROCK1. Description: IMAP fluorescence polarization kinase assay, ROCK1. The class given is biochemical. Also noted: purchased Life Technologies. Particulars: in vitro, 1 μM ATP. The method, then: as §1
Target sequence in this assay (Q13464 whole entry, the tested form may be a part): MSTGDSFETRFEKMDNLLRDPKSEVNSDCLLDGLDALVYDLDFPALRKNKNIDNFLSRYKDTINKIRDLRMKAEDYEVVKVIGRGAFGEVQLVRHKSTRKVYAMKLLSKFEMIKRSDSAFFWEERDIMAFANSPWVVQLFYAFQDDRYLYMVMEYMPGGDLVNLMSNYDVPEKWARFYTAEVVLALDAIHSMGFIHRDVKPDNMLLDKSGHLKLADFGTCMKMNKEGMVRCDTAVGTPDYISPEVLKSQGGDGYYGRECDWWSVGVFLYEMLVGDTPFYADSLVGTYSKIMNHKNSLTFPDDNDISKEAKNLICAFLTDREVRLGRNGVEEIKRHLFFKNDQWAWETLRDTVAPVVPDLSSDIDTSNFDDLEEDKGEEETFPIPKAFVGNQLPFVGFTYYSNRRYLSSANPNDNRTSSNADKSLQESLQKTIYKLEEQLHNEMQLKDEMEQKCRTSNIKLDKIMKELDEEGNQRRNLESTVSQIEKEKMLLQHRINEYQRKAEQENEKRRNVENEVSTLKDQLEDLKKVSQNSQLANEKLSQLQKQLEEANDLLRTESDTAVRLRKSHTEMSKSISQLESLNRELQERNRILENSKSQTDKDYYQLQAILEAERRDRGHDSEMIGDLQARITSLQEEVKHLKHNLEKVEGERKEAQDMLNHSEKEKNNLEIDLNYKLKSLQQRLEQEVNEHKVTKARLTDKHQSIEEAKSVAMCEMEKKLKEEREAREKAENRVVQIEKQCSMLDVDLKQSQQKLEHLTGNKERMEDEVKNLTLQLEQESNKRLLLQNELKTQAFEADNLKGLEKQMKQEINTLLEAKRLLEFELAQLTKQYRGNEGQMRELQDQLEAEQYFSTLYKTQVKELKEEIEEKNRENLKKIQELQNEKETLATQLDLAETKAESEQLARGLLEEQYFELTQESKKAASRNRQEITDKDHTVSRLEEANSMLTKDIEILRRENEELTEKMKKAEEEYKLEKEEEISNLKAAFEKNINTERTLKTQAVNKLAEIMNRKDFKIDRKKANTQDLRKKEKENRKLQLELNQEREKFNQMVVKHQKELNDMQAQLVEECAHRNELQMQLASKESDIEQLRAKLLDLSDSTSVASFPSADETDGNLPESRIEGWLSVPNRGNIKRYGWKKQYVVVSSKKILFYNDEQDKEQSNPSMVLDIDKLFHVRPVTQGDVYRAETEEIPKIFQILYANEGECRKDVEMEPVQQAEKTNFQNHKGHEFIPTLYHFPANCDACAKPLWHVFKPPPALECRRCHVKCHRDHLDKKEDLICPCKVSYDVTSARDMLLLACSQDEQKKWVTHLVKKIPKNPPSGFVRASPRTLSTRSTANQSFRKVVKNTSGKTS
(Polarisation of emitted light reports the rotation of a fluorescent probe.)

T1 sequence (Q16513 whole entry): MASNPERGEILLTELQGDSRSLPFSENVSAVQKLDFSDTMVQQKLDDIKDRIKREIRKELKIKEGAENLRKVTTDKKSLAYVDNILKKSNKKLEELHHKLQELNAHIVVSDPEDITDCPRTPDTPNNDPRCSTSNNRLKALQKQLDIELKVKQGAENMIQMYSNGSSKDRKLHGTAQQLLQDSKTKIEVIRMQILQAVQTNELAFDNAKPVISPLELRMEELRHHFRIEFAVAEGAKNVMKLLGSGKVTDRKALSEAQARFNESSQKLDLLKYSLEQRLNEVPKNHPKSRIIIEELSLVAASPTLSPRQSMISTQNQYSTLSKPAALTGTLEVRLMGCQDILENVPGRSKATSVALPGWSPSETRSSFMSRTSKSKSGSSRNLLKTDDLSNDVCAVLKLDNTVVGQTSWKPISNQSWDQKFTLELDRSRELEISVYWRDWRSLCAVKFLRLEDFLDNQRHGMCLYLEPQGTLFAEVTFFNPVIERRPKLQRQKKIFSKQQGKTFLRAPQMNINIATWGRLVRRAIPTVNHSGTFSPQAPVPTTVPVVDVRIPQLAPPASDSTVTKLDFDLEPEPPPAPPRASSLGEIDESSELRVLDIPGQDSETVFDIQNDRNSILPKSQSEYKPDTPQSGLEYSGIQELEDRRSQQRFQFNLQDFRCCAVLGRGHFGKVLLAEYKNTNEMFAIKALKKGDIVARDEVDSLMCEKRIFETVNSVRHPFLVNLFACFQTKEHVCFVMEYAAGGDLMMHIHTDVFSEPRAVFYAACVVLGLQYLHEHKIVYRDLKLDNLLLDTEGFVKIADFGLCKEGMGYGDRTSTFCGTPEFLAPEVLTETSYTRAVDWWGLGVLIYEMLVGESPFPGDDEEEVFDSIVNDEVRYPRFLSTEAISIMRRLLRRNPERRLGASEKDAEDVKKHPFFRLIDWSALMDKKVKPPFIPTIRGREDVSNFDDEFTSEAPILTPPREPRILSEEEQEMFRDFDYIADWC
MRCKα, sequence (Q5VT25 whole entry): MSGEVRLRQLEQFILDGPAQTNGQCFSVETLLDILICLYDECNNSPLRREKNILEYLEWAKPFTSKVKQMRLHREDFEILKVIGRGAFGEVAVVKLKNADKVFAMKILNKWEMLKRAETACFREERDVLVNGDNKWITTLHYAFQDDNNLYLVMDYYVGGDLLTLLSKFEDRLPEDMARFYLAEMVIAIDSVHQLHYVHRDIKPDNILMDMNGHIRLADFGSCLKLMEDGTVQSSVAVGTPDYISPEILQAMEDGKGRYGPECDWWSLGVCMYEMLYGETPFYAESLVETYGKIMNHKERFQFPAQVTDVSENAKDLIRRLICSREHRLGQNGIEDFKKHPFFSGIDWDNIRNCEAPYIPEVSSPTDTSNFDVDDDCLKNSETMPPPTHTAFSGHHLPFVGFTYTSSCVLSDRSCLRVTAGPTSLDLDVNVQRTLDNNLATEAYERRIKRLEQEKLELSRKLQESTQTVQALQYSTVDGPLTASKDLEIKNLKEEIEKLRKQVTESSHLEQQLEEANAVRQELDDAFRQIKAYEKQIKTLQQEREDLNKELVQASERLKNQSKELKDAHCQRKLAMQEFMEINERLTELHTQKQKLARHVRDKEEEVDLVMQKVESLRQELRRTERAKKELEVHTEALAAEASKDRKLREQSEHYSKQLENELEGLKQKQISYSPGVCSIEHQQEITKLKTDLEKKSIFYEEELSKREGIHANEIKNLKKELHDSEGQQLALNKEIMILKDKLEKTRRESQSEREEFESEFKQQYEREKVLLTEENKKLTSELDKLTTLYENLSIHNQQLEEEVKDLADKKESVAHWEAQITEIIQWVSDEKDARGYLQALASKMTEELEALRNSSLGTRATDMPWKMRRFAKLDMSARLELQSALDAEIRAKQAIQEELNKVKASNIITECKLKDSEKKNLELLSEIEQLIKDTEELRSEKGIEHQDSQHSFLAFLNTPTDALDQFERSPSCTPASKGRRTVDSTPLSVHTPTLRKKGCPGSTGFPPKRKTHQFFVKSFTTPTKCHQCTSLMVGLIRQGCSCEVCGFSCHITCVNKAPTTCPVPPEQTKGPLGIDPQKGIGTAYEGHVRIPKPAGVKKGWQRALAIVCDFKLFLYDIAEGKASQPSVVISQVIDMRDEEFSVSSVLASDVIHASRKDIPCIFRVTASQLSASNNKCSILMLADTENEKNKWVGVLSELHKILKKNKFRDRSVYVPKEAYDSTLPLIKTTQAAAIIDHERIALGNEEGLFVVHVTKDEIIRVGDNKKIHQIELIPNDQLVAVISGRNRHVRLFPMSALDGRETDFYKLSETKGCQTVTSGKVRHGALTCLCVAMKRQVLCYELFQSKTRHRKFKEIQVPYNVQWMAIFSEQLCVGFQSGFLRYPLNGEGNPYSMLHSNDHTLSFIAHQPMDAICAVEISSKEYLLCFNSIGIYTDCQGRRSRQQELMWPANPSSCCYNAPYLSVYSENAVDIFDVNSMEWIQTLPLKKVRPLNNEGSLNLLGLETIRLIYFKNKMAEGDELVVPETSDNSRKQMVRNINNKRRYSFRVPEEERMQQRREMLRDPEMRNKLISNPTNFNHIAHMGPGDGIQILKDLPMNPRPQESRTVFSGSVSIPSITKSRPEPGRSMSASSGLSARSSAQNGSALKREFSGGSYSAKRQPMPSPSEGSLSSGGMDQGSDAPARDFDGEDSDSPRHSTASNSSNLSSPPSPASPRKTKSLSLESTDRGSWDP

Turning to `O=C(Nc1cn[nH]c1-c1ccccn1)c1nn(C2CCNCC2)cc1Cl` [BDP5290, 4-chloro-1-(4-piperidyl)-N-[5-(2-pyridyl)-1H-pyrazol-4-yl]pyrazole-3-carboxamide], at PRK2, the inhibition at 10 µM is more than 75%. This compound also came in with a Papp in the data set “Caco-2 permeability” of 0.171 ×10⁻⁶ cm/s. Moreover, the Ki at MRCKα was 10 nM. Besides, the logD in the data set “logD” amounted to 0.786. Further, the EC50 in data set [1] (Homo sapiens, 0.5 h) was 316 nM; at ROCK1 [2], 501 nM. Also, the “pMLC on western blots at higher concentrations” value in data set [1] is on record as “reduced pMLC to undetectable levels”. This compound also returned an IC50 against ROCK1 [3] of 230 nM.

For the compound `C[C@@H](N)[C@H]1CC[C@H](C(=O)Nc2ccncc2)CC1` [Y27632, reference compound], in data set [1], the EC50 turned out to be 407 nM and the “pMLC on western blots at higher concentrations” value is on record as “unable to completely inhibit pMLC”.

As a reminder, the inhibition is how much of the control response was suppressed. Read a high inhibition as strong suppression. One may read the Papp as the rate of passage across a membrane or cell layer, normalised by area and donor concentration. The Ki is the dissociation constant of the complex between target and ligand, obtained from inhibition or displacement. A word on the logD: it is the decadic logarithm of the distribution of all forms, ionised or not, between an organic phase and buffer at a given pH. Low readings indicate a more hydrophilic compound, high ones a more lipophilic compound. In general, EC50 refers to the concentration that produces a half-maximal response. What is called IC50 is the concentration that inhibits the measured activity by half.
